From patent US9927424B2, “Assays for identifying compounds that modulate bitter taste” (Chromocell Corporation, priority 2013, dated 2018)

What was measured:
Assay type in all cases: cell-based
[1] = target: T1, TAS2R9 (Homo sapiens, UniProt Q9NYW1); experiment: Calcium fluorescence functional assay, TAS2R9 cell line with mouse Gα15; settings: for TAS2R9 bitter receptor activity (functional response): 20 mM tastant, change in intracellular calcium; for EC50: approximately, increasing concentrations of tastant
T1 construct: expressed in transfected cells
T1 sequence (Q9NYW1 1-312): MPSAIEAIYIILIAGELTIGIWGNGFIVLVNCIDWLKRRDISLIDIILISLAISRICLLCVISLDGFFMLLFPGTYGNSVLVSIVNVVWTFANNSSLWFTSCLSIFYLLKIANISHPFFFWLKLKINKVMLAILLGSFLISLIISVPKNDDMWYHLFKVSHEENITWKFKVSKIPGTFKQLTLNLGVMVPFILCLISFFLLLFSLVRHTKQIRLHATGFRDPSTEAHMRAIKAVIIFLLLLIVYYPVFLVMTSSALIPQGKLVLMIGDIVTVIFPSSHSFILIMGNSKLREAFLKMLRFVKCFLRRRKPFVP
Protocol: (§1) A panel of cell lines expressing eight specific bitter taste receptors, a subset of the panel of twenty-five bitter receptors described in International Patent Application Publication WO 2010/088633 (see, e.g., Example 26), was used for the purpose of these analyses. Accordingly, each cell line of the panel expressed a human bitter taste receptor and mouse Gα15 signaling protein.
(§2) Each of the Examples below utilized the following functional assay: • Day 1: Stable cell lines were seeded onto black wall/clear bottom 96-well, plates (e.g., Corning, 3904). Approximately 40K cells were added per well and incubated at 37° C., 5% CO2 overnight in cell growth media (DMEM (Sigma, D5796) supplemented with 10% Fetal Bovine Serum (Sigma, 5178), 2 mM Glutamine (Sigma, G7513)). • Day 2: Growth media was discarded and cells were incubated at 37° C., 5% CO2 for 60 minutes in 100 ul of load solution containing 1× Ca-3 dye (Molecular Devices, R8090), 1% DMSO in buffer containing 130 mM NaCl, 2 mM CaCl2, 5 mM KCl, 1.2 mM MgCl2, 10 mM HEPES and 10 mM Glucose (pH 7.0). Probenecid was not included in the load solution. • Functional assay: After dye loading, cell plates were placed in a fluorescent plate reader (e.g., FDSS6000 (Hamamatsu, Japan)) and receptor stimulation was measured by adding 50 ul of 3× concentrated ligand/agonist stock. Fluorescence was monitored continuously for 10 s before agonist addition and for 100-250 s after stimulation with agonist.
(§3) Receptor Activation is defined as follows: • % Activation=[((Maximum signal fluorescence−Minimum signal fluorescence)−(Maximum control fluorescence−Minimum control fluorescence))/(Maximum buffer fluorescence−Minimum buffer fluorescence)]*100 • Functional Response=[(Maximum signal fluorescence−Minimum signal fluorescence)−(Maximum control fluorescence−Minimum control fluorescence)] • Signal fluorescence: refers to the change in fluorescence seen with addition of ligand • Control fluorescence: refers to the change in fluorescence seen with addition of buffer (negative control) • Calcium signals from ligand and control were normalized to the basal fluorescence of the cells prior to the stimulation.
(§4) A concentration analysis was performed and EC50 values were calculated by nonlinear regression using the formula: Y=Bottom+(Top−Bottom)/(1+10^((Log EC50−X)*Hill Slope)), X=log of dose or concentration, Y=Response (increasing as X increases), Top=maximum signal, Bottom=minimum signal. EC50 (half maximal effective concentration) refers to the molar concentration of the agonist which produces 50% of the maximum possible effective response from that agonist.

[2] = target: T2, TAS2R13 (Homo sapiens, UniProt Q9NYV9); experiment: Calcium fluorescence functional assay, TAS2R13 cell line with mouse Gα15; settings: for TAS2R13 bitter receptor activity (functional response): 20 mM tastant, change in intracellular calcium; for EC50: approximately, increasing concentrations of tastant
T2 construct: expressed in transfected cells
T2 sequence (Q9NYV9 1-303): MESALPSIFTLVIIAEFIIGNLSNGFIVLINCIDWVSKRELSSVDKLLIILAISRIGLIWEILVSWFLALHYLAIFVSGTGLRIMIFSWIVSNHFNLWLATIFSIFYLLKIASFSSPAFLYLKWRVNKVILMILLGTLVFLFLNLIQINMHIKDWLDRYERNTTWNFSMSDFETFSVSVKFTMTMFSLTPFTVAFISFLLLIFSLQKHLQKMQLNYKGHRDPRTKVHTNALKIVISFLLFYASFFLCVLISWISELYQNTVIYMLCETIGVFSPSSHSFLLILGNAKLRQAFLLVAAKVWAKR
Protocol: as §1, §2, §3, §4

[3] = target: T3, TAS2R60 (Homo sapiens, UniProt P59551); experiment: Calcium fluorescence functional assay, TAS2R60 cell line with mouse Gα15; settings: for TAS2R60 bitter receptor activity (functional response): 20 mM tastant, change in intracellular calcium, data for potassium nitrate and potassium phosphate (dibasic) preliminary; for EC50: approximately, increasing concentrations of tastant
T3 construct: expressed in transfected cells
T3 sequence (P59551 1-318): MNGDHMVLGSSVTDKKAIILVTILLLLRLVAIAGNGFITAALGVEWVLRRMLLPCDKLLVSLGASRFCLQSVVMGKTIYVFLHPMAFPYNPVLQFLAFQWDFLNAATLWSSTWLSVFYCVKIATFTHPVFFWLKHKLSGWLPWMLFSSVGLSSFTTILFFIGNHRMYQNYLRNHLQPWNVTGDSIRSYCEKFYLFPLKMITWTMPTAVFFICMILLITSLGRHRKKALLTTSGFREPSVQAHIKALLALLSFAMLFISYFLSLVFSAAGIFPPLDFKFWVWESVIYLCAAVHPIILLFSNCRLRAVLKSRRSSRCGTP
Protocol: Accordingly, each cell line of the panel expressed a human bitter taste receptor and mouse Gα15 signaling protein.
Probenecid was not included in the load solution. • Functional assay: After dye loading, cell plates were placed in a fluorescent plate reader (e.g., FDSS6000 (Hamamatsu, Japan)) and receptor stimulation was measured by adding 50 ul of 3× concentrated ligand/agonist stock. Fluorescence was monitored continuously for 10 s before agonist addition and for 100-250 s after stimulation with agonist.
as §3
A concentration analysis was performed and EC50 values were calculated by nonlinear regression using the formula: Y=Bottom+(Top−Bottom)/(1+10^((Log EC50−X)*Hill Slope)), X=log of dose or concentration, Y=Response (increasing as X increases), Top=maximum signal, Bottom=minimum signal.

[4] = target: T4, TAS2R39 (Homo sapiens, UniProt P59534); experiment: Calcium fluorescence functional assay, TAS2R39 cell line with mouse Gα15; settings: for TAS2R39 bitter receptor activity (functional response): 20 mM tastant, change in intracellular calcium; for EC50: approximately, increasing concentrations of tastant
T4 construct: expressed in transfected cells
T4 sequence (P59534 1-338): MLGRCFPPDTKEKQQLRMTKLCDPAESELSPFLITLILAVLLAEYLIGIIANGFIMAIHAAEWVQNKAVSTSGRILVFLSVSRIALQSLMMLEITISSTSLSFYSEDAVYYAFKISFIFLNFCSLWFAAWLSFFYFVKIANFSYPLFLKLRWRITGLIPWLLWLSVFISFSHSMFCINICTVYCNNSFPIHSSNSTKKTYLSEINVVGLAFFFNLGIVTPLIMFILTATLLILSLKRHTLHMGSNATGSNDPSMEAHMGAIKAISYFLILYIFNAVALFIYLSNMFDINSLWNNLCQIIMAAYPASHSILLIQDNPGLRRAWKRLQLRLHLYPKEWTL
Protocol: as §1, §2, §3, §4

Structure (SMILES) | TAS2R9 bitter receptor activity (functional response) [1] | TAS2R13 bitter receptor activity (functional response) [2] | TAS2R60 bitter receptor activity (functional response) [3] | TAS2R39 bitter receptor activity (functional response) [4] | EC50 [1] [mM] | EC50 [2] [mM] | EC50 [3] [mM] | EC50 [4] [mM]
C/C=C/C=C/C(=O)[O-].[K+] [potassium sorbate] | induced | induced | induced | induced | – | – | – | –
O=C([O-])[C@H](O)[C@@H](O)[C@H](O)[C@H](O)CO.[K+] [potassium gluconate] | induced | induced | did not induce | induced | – | – | – | –
O=[N+]([O-])[O-].[K+] [potassium nitrate] | induced | induced | induced | induced | – | – | – | –
CC(=O)[O-].[K+] [potassium acetate] | induced | induced | induced | did not induce | 5 to 10 | 5 to 10 | 5 to 10 | –
O=C([O-])c1ccccc1.[K+] [potassium benzoate] | induced | induced | induced | induced | 5 to 10 | 5 to 10 | 5 to 10 | 5 to 10
[Cl-].[K+] [KCl] | – | – | – | strongly and specifically responded | – | – | – | 5 to 15
O=P([O-])([O-])O.[K+].[K+] [potassium phosphate (dibasic)] | induced | induced | induced | induced | – | – | – | –
O=S(=O)([O-])[O-].[K+].[K+] [potassium sulfate] | induced | induced | induced | induced | – | – | – | –
